Where two headings read alike, the source gives them in different places. Bounds are passed on as bounds.

The subject of data set [1] is LC3B. Put plainly: LC3B concentration in MDA-MB-231 cell lysates (ELISA). The data set is classed as cell-based, human. The conditions noted are these: 24 h, control 1.504 ng/mL. As to the method:
(§1) High sensitivity assay kits (EIAab Science Co., Ltd., Wuhan, China; Abcam plc., Cambridge, United Kingdom; Cloud-Clone Corp., Katy, TX, USA) were used to determine the concentrations of selected proteins in cell lysates […] In brief, after trypsinization, cells were washed thrice with cold PBS and centrifuged at 1000× g for 5 min at 4 °C. Then, cells (1.5 × 10^6) were suspended in lysis buffer for whole-cell lysates. After the second centrifugation, cellular supernatants were frozen immediately at −70 °C. Untreated cancer cells were taken as a control.
(§2) The microtiter plates provided in the kits were pre-coated with an antibody specific to the analyzed antigen. The tests were carried out according to the manufacturer’s protocols.

The test system of data set [2] is caspase-9. The experiment in a line: Caspase-9 concentration in MDA-MB-231 cell lysates (ELISA). The format is cell-based, human. The following applies: 24 h, control 65.073 ng/mL. As to the method:
(§3) High sensitivity assay kits (EIAab Science Co., Ltd., Wuhan, China; Abcam plc., Cambridge, United Kingdom; Cloud-Clone Corp., Katy, TX, USA) were used to determine the concentrations of selected proteins in cell lysates after 24 h incubation with novel compound and reference drug in 1 µM and 5 µM concentrations. In brief, after trypsinization, cells were washed thrice with cold PBS and centrifuged at 1000× g for 5 min at 4 °C. Then, cells (1.5 × 10^6) were suspended in lysis buffer for whole-cell lysates. After the second centrifugation, cellular supernatants were frozen immediately at −70 °C. Untreated cancer cells were taken as a control.
as §2
On the technique in general: In an ELISA, binding on a coated surface is turned into a signal by an enzyme label.

The next data set relates to MCF-7 cancer cells. Put plainly: [3H]-thymidine incorporation assay, MCF-7. The format is cell-based. The following applies: Homo sapiens. As to the method: The antiproliferative properties of the newly synthesized compound were investigated through the [^3H]-thymidine incorporation assay, as described in the literature. Cells culture was exposed to various concentrations of Les-3331 acid and reference drug for 24 h. Thereafter, cells were washed with PBS and 1 mL of fresh medium was added to each well. Then, 0.5 µCi of radioactive [^3H]-thymidine was appended, and the incubation continued for four hours. After the following incubation, the liquid was aspirated and the plate was placed on ice. Cells were washed twice with 1 mL of 0.05 M Tris-HCl buffer comprising 0.11 M NaCl, then twice after that with 1 mL of 5% TCA acid (Stanlab, Lublin, Poland). Finally, the cells were dissolved with 1 mL of 0.1 M NaOH with 1% SDS (Sigma-Aldrich, St. Louis, MO, USA) at room temperature (RT). The resulting cell lysates were transferred into scintillation vials containing 2 mL of scintillation fluid. The radioactivity was determined using Scintillation Counter 1900 TR, TRI-CARB (Packard, Perkin Elmer, Inc., San Jose, CA, USA). The intensity of DNA biosynthesis in cells was expressed in dpm of radioactive thymidine incorporated in the DNA. The radioactivity observed in untreated control cells was taken as 100%. Values from the tested compounds were expressed as a percentage of the control value.
In general terms: Uptake of a labelled nucleoside into DNA is a usual measure of proliferation.

For the next data set, the system named is MCF-7 cells. The experiment in a line: Annexin V binding assay (flow cytometry), MCF-7. The data set is classed as cell-based, human. The conditions noted are these: 24 h. As to the method: The effect of Les-3331 and reference drug on the induction of apoptosis process in human breast cancer cell lines was evaluated using a flow cytometer (BD FACSCanto II, Becton Dickinson Biosciences Systems, San Jose, CA, USA) and Annexin V binding Apoptosis Detection Kit II (BD Biosciences, San Diego, CA, USA). The Les-3331 and reference drug were used in 1 µM and 5 µM concentrations. The test was carried out after 24 h incubation with the tested compounds according to the manufacturer’s protocol and was previously described by our research group. Analysis of the obtained results was performed using FACSDiva software (version 6.1.3, BD Biosciences Systems, San Jose, CA, USA). The equipment was calibrated with BD Cytometer Setup and Tracking Beads (BD Biosciences, San Diego, CA, USA).
In general terms: Flow cytometry measures light scatter and fluorescence of single cells or particles in a stream.

Another data set deals with topoisomerase II. The experiment in a line: Topoisomerase II concentration in MDA-MB-231 cell lysates (ELISA). The conditions noted are these: 24 h, control 2.700 ng/mL. The data set is classed as cell-based, human. As to the method: as §3, §2
The next data set has as its system caspase-8. The experiment in a line: Caspase-8 concentration in MDA-MB-231 cell lysates (ELISA). The format is cell-based, human. The following applies: 24 h, control 0.828 ng/mL. As to the method:
as §3, §2

Data set [3] has as its system Beclin-1. The experiment in a line: Beclin-1 concentration in MCF-7 cell lysates (ELISA). The conditions noted are these: 24 h, control 7.965 ng/mL. The format is cell-based, human. As to the method:
as §1, §2

Data set [4] relates to Beclin-1. Put plainly: Beclin-1 concentration in MDA-MB-231 cell lysates (ELISA). The data set is classed as cell-based, human. The conditions noted are these: 24 h, control 3.605 ng/mL. As to the method: as §1, §2
The test system of data set [5] is LC3B. Put plainly: LC3B concentration in MCF-7 cell lysates (ELISA). The data set is classed as cell-based, human. The conditions noted are these: 24 h, control 1.194 ng/mL. As to the method:
as §1, §2

Data set [6] deals with caspase-9. The experiment in a line: Caspase-9 concentration in MCF-7 cell lysates (ELISA). The following applies: 24 h, control 120.913 ng/mL. The format is cell-based, human. As to the method:
as §3, §2

Another data set has as its target T1, CYP2D6 (Homo sapiens, UniProt P10635).
T1 construct: purchased Promega (Madison, WI, USA)
The experiment in a line: Luminescent CYP2D6 P450-Glo assay. The data set is classed as in vitro ADME. The following applies: at the highest dose 25 µM. As to the method:
For investigation of potential drug-drug interactions, the luminescent CYP3A4 and CYP2D6 P450-Glo assays obtained from Promega® (Madison, WI, USA) were used. Les-3331 was tested in triplicate at the final concentrations from 0.01 to 25 µM according to the protocols provided by Promega®. The reference inhibitors were tested at 1 µM. The luminescent signal was measured using a microplate reader, EnSpire PerkinElmer (Waltham, MA, USA).

Data set [7] can be described thus: Parallel artificial membrane permeability assay (PAMPA). The data set is classed as in vitro ADME. The following applies: 200 µM in PBS pH 7.4, 5 h at RT, read-out: permeability coefficient Pe. As to the method: All in vitro assays used for the evaluation of Les-3331 ADME-Tox parameters were described previously. In brief, for the determination of permeability, Pre-coated PAMPA Plate System Gentest^TM was purchased from Corning (Tewksbury, MA, USA). […] PAMPA plates with compounds added to the donor wells were incubated for 5 h at RT. UPLC-MS Waters ACQUITY—TQD system with the TQ Detector (Waters, Milford, MI, USA) was used next for determination of compounds concentrations in donor and acceptor wells, which were required for calculation of permeability coefficient Pe according to formulas provided by the manufacturer.

T1 sequence (P10635 whole entry): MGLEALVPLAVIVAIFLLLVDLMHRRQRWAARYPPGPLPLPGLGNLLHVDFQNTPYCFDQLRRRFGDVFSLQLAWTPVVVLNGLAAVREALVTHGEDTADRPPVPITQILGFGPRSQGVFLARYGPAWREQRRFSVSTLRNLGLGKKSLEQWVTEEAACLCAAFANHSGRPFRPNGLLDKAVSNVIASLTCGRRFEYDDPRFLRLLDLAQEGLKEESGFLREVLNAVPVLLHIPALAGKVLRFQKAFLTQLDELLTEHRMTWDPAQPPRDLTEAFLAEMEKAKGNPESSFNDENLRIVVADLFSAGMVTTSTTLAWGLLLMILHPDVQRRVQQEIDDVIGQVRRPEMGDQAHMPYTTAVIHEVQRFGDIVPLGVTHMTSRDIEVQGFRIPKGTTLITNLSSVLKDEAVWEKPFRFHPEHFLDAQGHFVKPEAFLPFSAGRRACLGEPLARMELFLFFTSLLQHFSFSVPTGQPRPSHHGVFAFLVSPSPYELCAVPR

As for `COc1cc([C@@H]2c3cc4c(cc3[C@@H](O[C@@H]3O[C@@H]5CO[C@@H](C)O[C@H]5[C@H](O)[C@H]3O)[C@H]3COC(=O)[C@H]23)OCO4)cc(OC)c1O` [Etoposide, reference compound], the LC3B concentration in the data set on LC3B [1] (MDA-MB-231, 1 µM) was determined as 0.784 ng/mL; in the data set on LC3B [1] (MDA-MB-231, 5 µM), 0.615 ng/mL; in the data set with LC3B [5] (MCF-7, 1 µM), 1.157 ng/mL; with LC3B [5] (MCF-7, 5 µM), 0.779 ng/mL. Besides, the Casp-9 concentration amounted to 86.953 ng/mL in the data set with caspase-9 [2] (MDA-MB-231, 1 µM); 93.620 ng/mL in the data set on caspase-9 [2] (MDA-MB-231, 5 µM); 154.960 ng/mL in the data set on caspase-9 [6] (1 µM); 158.900 ng/mL in the data set with caspase-9 [6] (5 µM). Also, the IC50 in the data set with MCF-7 cancer cells (MCF7, MCF-7, 24 h incubation, read-out: IC50, cell proliferation ([3H]-thymidine incorporation)) is more than 20 µM. In addition, the “% of late and early apoptotic cells” value in the data set with MCF-7 cells (MCF-7, 1 µM) is 10.7%; in the data set with MCF-7 cells (MCF-7, 5 µM), 10.7%. Moreover, the “Top II concentration” value with topoisomerase II (MDA-MB-231, 1 µM) worked out at 2.175 ng/mL; in the data set on topoisomerase II (MDA-MB-231, 5 µM) it was 2.003 ng/mL. The Casp-8 concentration in the data set on caspase-8 (MDA-MB-231, 1 µM) was found to be 0.836 ng/mL; with caspase-8 (MDA-MB-231, 5 µM), 0.857 ng/mL. For the same compound, the Beclin-1 concentration with Beclin-1 [3] (1 µM) was 7.848 ng/mL; with Beclin-1 [3] (5 µM), 6.686 ng/mL; with Beclin-1 [4] (MDA-MB-231, 1 µM), 3.442 ng/mL; in the data set on Beclin-1 [4] (MDA-MB-231, 5 µM), 3.004 ng/mL.

For `CC(C)C(C(=O)O)N1C(=O)/C(=C/C(Cl)=C/c2ccc([N+](=O)[O-])cc2)SC1=S` (centres unmarked) [Les-3331, 2-{5-[(Z,2Z)-2-chloro-3-(4-nitrophenyl)-2-propenylidene]-4-oxo-2-thioxothiazolidin-3-yl}-3-methylbutanoic acid], the LC3B concentration in the data set with LC3B [1] (MDA-MB-231, 1 µM) was 1.178 ng/mL; with LC3B [1] (MDA-MB-231, 5 µM), 0.996 ng/mL; with LC3B [5] (MCF-7, 5 µM), 1.002 ng/mL. The Casp-9 concentration stood at 84.300 ng/mL with caspase-9 [2] (MDA-MB-231, 1 µM); 92.523 ng/mL with caspase-9 [2] (MDA-MB-231, 5 µM); 150.187 ng/mL with caspase-9 [6] (1 µM); 168.243 ng/mL with caspase-9 [6] (5 µM). In addition, the “effect on CYP2D6 activity” value at CYP2D6 is listed as “slight inhibition”. For the same compound, the IC50 in the data set on MCF-7 cancer cells (MCF7, read-out: IC50, cell proliferation ([3H]-thymidine incorporation)) is 5.54 µM. In addition, the “% of late and early apoptotic cells” value is on record as 6.5% in the data set with MCF-7 cells (MCF-7, 1 µM) and 40.4% with MCF-7 cells (MCF-7, 5 µM). The “Top II concentration” value with topoisomerase II (MDA-MB-231, 1 µM) worked out at 2.508 ng/mL; in the data set with topoisomerase II (MDA-MB-231, 5 µM) it was 1.436 ng/mL. Also, the Casp-8 concentration was determined as 1.012 ng/mL in the data set on caspase-8 (MDA-MB-231, 1 µM) and 1.067 ng/mL in the data set with caspase-8 (MDA-MB-231, 5 µM). Besides, the Papp at 5 h, 200 µM in data set [7] was 0.96 ×10⁻⁶ cm/s. The Beclin-1 concentration was determined as 7.435 ng/mL in the data set with Beclin-1 [3] (1 µM); 3.948 ng/mL in the data set on Beclin-1 [3] (5 µM); 3.007 ng/mL in the data set with Beclin-1 [4] (MDA-MB-231, 1 µM).
